Source: patent US7732451B2, “Naphthalene-containing melanocortin receptor-specific small molecule” (Palatin Technologies, Inc., priority 2002, dated 2010)

Experiments:
hMC4-R = target: T1, hMC4-R (Homo sapiens, UniProt P32245); assay: competitive inhibition binding assay, 125I-NDP-α-MSH, membranes
T1 construct: expressed in transfected cells
Procedure: (§1) A competitive inhibition binding assay was conducted using membranes prepared from hMC3-R, hMC4-R, hMC5-R, and B-16 mouse melanoma cells (containing MC1-R) using 0.4 nM ^125I-NDP-α-MSH (New England Nuclear, Boston, Mass., USA) in 50 mM HEPES buffer containing 1 mM MgCl2, 2 mM CaCl2, and 5 mM KCl, at pH 7.2. The assay tube also contained a chosen concentration of the test compound of this invention, for determining its efficacy in inhibiting the binding of ^125I-NDP-α-MSH to its receptor.
(§2) Incubation was for 90 minutes at room temperature, after which the assay mixture was filtered and the membranes washed three times with ice cold buffer. The filter was dried and counted in a gamma counter for remaining radioactivity bound to the membranes. 100% specific binding was defined as the difference in radioactivity (cpm) bound to cell membranes in the absence and presence of 1 μM α-MSH. […] Each assay was conducted in triplicate and the actual mean values are described. The Ki (nM) of certain compounds of the invention were determined.

hMC5-R = target: T2, hMC5-R (Homo sapiens, UniProt P33032); assay: as above
T2 construct: expressed in transfected cells
T2 sequence (P33032 whole entry): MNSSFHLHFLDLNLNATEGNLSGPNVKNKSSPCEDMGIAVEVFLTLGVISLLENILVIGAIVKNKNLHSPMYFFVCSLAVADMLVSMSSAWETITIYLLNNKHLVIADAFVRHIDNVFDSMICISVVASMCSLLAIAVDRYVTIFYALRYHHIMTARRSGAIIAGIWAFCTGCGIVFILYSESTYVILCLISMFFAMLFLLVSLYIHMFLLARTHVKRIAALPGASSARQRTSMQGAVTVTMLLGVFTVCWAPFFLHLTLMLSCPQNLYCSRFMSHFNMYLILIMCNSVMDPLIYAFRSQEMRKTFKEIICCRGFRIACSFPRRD
Procedure: as §1, §2

[1] = target: T3, MC1-R (B-16 mouse melanoma cells) (Mus musculus, UniProt Q01727); assay: as above
T3 construct: B-16 mouse melanoma cells (containing MC1-R); endogenous in cells; host or cells: B-16 mouse melanoma cells
T3 sequence (Q01727 whole entry): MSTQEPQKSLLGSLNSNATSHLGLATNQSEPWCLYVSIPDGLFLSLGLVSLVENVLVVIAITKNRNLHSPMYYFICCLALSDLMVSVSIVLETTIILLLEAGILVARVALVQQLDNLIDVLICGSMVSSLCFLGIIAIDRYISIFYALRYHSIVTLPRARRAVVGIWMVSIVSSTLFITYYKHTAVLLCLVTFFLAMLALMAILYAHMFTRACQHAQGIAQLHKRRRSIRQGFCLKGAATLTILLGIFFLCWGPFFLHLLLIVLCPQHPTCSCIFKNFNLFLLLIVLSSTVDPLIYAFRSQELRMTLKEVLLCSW
Procedure: as §1, §2

hMC3-R = target: T4, hMC3-R (Homo sapiens, UniProt P41968); assay: as above
T4 construct: expressed in transfected cells
T4 sequence (P41968 whole entry): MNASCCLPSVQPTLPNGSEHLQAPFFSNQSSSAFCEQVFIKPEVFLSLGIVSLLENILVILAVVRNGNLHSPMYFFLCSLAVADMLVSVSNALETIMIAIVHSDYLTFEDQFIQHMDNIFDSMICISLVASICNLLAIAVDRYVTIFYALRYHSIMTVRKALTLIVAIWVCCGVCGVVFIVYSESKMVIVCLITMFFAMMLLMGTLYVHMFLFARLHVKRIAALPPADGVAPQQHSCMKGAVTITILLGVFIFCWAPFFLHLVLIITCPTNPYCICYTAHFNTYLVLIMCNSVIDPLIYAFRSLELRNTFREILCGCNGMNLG
Procedure: as §1, §2

[2] = target: T5, MC5-R (HEK-293 cells expressing MC5-R) (Homo sapiens, UniProt P33032); assay: cAMP assay for agonist/antagonist status; type: cell-based; details: antagonism = inhibition of α-MSH-induced cAMP
T5 construct: expressed in transfected cells; host or cells: HEK-293
T5 sequence (P33032 whole entry): as the sequence (P33032 whole entry) above
Procedure: (§3) Functional evaluation of compounds at melanocortin receptors was performed by measuring the accumulation of intracellular cAMP in HEK-293 cells expressing MC3-R, MC4-R or MC5-R, and in B-16 mouse melanoma cells (containing MC1-R). Cells, suspended in Earle's Balanced Salt Solution containing 10 mM HEPES, pH 7.5, 5 mM MgCl2, 1 mM glutamine, 0.1% albumin and 0.6 mM 3-isobutyl-1-methyl-xanthine, a phosphodiesterase inhibitor, were plated in 96 well plates at a density of 0.5×10^5 cells per well. Cells were incubated with the test compounds in the presence or absence of α-MSH for 1 hour at 37° C. cAMP levels were measured by EIA (Amersham) in the cell lysates. Data analysis and EC50 values were determined using nonlinear regression analysis with Prism Graph-Pad software.
(§4) The agonist/antagonist status with respect to MC4-R of certain compounds of the invention was determined. Antagonistic activity was determined by measuring the inhibition of α-MSH-induced cAMP levels following exposure to the compounds as in Example 2.

[3] = target: T3, MC1-R (B-16 mouse melanoma cells); assay: cAMP assay for agonist/antagonist status; type: cell-based; details: antagonism = inhibition of α-MSH-induced cAMP
Procedure: as §3, §4

[4] = target: T6, MC4-R (HEK-293 cells expressing MC4-R) (Homo sapiens, UniProt P32245); assay: cAMP assay for agonist/antagonist status; type: cell-based; details: antagonism = inhibition of α-MSH-induced cAMP
T6 construct: expressed in transfected cells; host or cells: HEK-293
T6 sequence (P32245 whole entry): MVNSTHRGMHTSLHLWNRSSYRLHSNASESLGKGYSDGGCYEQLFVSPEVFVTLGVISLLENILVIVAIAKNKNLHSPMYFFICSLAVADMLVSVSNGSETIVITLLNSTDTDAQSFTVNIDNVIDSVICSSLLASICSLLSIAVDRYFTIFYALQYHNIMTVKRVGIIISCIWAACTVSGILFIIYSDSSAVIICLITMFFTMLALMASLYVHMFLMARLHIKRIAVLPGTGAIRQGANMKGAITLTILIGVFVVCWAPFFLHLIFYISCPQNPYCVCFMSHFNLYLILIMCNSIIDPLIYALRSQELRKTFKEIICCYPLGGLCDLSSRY
Procedure: as §3, §4

[5] = penile erection (PE) studies in male rats; type: in vivo, rat; details: IV, dose levels of 0.3, 3 and 30 μg/Kg
Procedure: The ability of compounds to induce penile erection (PE) in male rats was evaluated with selected compounds. Male Sprague-Dawley rats weighing 200-250 g were kept on a 12 hour on/off light cycle with food and water ad libitum. All behavioral studies were performed between 10 a.m. and 5 p.m. Groups of 4-8 rats were treated with compounds at a variety of doses via intravenous (IV) or intracerebroventricular (ICV) routes. Immediately after treatment, rats were placed into individual polystyrene cages (27 cm long, 16 cm wide, and 25 cm high) for behavioral observation. The iv and icv treated rats were observed respectively for 30 minutes and 120 min and the number of yawns, grooming bouts and PEs were recorded in 10-minute bins.

[6] = ICV feeding studies, change in food intake and body weight; type: in vivo, rat; details: 1 nmol, male Sprague-Dawley rats
Procedure: (§5) Change in food intake and body weight was evaluated for selected compounds. Male Sprague-Dawley rats weighing ˜300 g at the beginning of the experiment were kept on a 12 hour on/off light cycle. Lights out was adjusted to 12:00 p.m. to allow for dosing just prior to the start of their dark period. Rats (8-12/group) were fed powdered chow and water ad libitum. For 1 week before treatment, 24-hour food intake and body weight change was recorded to assess a baseline for the group during vehicle treatment. The rats were dosed ICV with vehicle or selected compounds (1-3 nmol). The changes in body weight and food intake for the 24 hour period after dosing were determined. The changes in body weight and food intake for the 48 hour period, and in same cases for 72 hours as well, after dosing were also measured to determined reversal of changes in body weight and food intake effect back to baseline.

[7] = IV feeding studies, change in food intake and body weight; type: in vivo, rat; details: 3 μg/Kg, male Sprague-Dawley rats
Procedure: as §5, with “The rats were dosed ICV with vehicle or selected compounds (1-3 nmol).” left out

T1 sequence (P32245 whole entry): as above

C[C@@H]1CN(C(=O)[C@H](N)Cc2ccc(Cl)cc2)[C@@H](CCCNC(=N)N)CN1CCc1ccc2ccccc2c1 [Example 15, N-{3-[1-[2(R)-Amino-3-(4-chloro-phenyl)-propionyl]-5(R)-methyl-4-(2-naphthalen-2-yl-ethyl)-piperazin-2(S)-yl]-propyl}-guanidine]
inhibition at 1 µM (hMC4-R; 1 μM compound, average of triplicates, read-out: Inhibition at 1 μM MC4-R): 97%
Ki (hMC4-R; read-out: Ki (nM) MC4-R): 11 nM
inhibition at 1 µM (hMC5-R; 1 μM compound, average of triplicates, read-out: Inhibition at 1 μM MC5-R): 52%
Ki (hMC5-R; read-out: Ki (nM) MC5-R): 551 nM
inhibition at 1 µM ([1]; 1 μM compound, average of triplicates, results less than 0% reported as 0%): 85%
Ki ([1]; read-out: Ki (nM) MC1-R): 94 nM
inhibition at 1 µM (hMC3-R; 1 μM compound, average of triplicates, read-out: Inhibition at 1 μM MC3-R): 61%
Ki (hMC3-R; read-out: Ki (nM) MC3-R): 160 nM
agonist/antagonist status as to MC5-R [2]: agonist
agonist/antagonist status as to MC1-R [3]: agonist
agonist/antagonist status as to MC4-R [4]: agonist
PE effect [5]: no observed effect
24 hour change in food intake [6]: -3.9 g
change in weight ([6]; 24 hour): -3.9 g
24 hour change in food intake [7]: -9.6 g
change in weight ([7]; 24 hour): -6.6 g
